According to US20040009964A1, “Compositions and methods for the treatment of matrix metalloproteinase-related diseases” (BioInterface Technologies, Inc., priority 2002, published 2004):
“Also recorded” adds a separate entry of the source.

Key:
matrix metalloproteinase = settings: synoviocyte MMP activity; cited from earlier work
[1] = molecular target: human neutrophil collagenase (Homo sapiens, UniProt P22894); settings: cited from earlier work; for Effect of metal ion binding on collagenase activity: binding to human neutrophil collagenase
Sequence of human neutrophil collagenase (P22894 101-467): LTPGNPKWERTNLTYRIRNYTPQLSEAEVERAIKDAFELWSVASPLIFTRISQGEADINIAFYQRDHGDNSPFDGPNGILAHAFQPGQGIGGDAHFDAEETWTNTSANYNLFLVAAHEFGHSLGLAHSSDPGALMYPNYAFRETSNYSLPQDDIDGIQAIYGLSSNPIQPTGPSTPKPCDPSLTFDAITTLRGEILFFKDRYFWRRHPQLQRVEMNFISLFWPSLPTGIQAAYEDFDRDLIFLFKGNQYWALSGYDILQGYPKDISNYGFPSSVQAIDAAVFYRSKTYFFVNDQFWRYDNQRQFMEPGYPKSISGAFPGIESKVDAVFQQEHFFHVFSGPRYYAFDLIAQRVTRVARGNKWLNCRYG

E. coli (ATCC 25922) = settings: overnight at 37° C., dilutions 1.95 to 250 μg/ml
Method: (§1) In vitro antimicrobial activity was calculated by determining the minimum inhibitory concentration (MIC) for a silver thiosulfate ion complex composition; for example, the silver thiosulfate ion complex produced according to Example 3. The antimicrobial activity of this embodiment was determined by using serial two-fold dilutions ranging from 1.95 to 250 μg/ml using tryptic soy broth (Difco) as a diluent. Each dilution was inoculated with a 0.005 ml aliquot from a 24-hour microbial growth culture having a concentration of approximately 10^5 to 10^7 CFU/ml. The dilutions were incubated overnight at 37° C. The MIC was determined by identifying the lowest dilution (expressed as μg/ml) of the silver thiosulfate ion complex that was without evidence of growth (i.e. was not cloudy).

[2] = system: P. aeruginosa (ATCC 27853); settings: overnight at 37° C., dilutions 1.95 to 250 μg/ml
Method: as §1

S. aureus (ATCC 25923) = settings: overnight at 37° C., dilutions 1.95 to 250 μg/ml
Method: as §1

[3] = system: S. epidermidis (ATCC 12228); settings: overnight at 37° C., dilutions 1.95 to 250 μg/ml
Method: as §1

O=[N+]([O-])[O-].O=[N+]([O-])[O-].O=[N+]([O-])[O-].[Ga+3] [gallium nitrate]
Inhibition of matrix metalloproteinase activity (matrix metalloproteinase): can inhibit matrix metalloproteinase activity

[Cd+2] [Cd(II)]
Effect of metal ion binding on collagenase activity [1]: noncompetitive inhibition; also recorded: collagenase inhibition

[Ag+] [Ag(I)]
Direct inhibition of matrix metalloproteinase ([1]; Ag(I) concentrations up to 10 μM, higher concentrations precipitated in the culture media): did not directly inhibit

[Cu+2] [Cu(II)]
Effect of metal ion binding on collagenase activity [1]: noncompetitive inhibition; also recorded: collagenase inhibition

[Au+] [Au(I)]
Effect of metal ion binding on collagenase activity [1]: noncompetitive inhibition; also recorded: collagenase inhibition

Na4[Ag2(S2O3)3]H2O [Silver Thiosulfate Ion Complexes]
MIC (E. coli (ATCC 25922)): <1.95 µg/mL | MIC [2]: <1.95 µg/mL | MIC (S. aureus (ATCC 25923)): <1.95 µg/mL | MIC [3]: <1.95 µg/mL

[Hg+2] [Hg(II)]
Effect of metal ion binding on collagenase activity [1]: collagenase inhibition

[Zn+2] [Zn(II)]
Effect of metal ion binding on collagenase activity [1]: retention of activity
